The values that follow come from patent US11945822B2, “Pyrazolo-triazine and/or pyrazolo-pxrimidine derivatives as selective inhibitor of cyclin dependent kinase” (QURIENT CO., LTD., priority 2018, dated 2024).

In experiment [1] the test system is MM.1S. Description: Cellular MM.1S viability assay (CellTiter-Glo, 72 hours). Format: cell-based. The following applies: Homo sapiens, MM1.S. The method in brief: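 Cells seeded at 1×10^4/well (MM.1S), 5×10^3 (OVCAR-3) or 1×10^3 (A2780), grown in RPMI-1640 with 10% FBS. After 24 h, compound added at 0.0015–10 uM, final DMSO below 0.1%, for 72 h at 37° C. Viability read by CellTiter-Glo luminescence in duplicate, with curve fitting.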
In general terms: Cellular ATP, detected with luciferase, serves as a proxy for viable cell number.

The test system of experiment [2] is H460. Description: Cellular H460 viability assay (CellTiter-Glo, 72 hours). Format: cell-based. The following applies: Homo sapiens, NCI-H460. The method in brief:
(§1)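 Cells plated in 96 wells and exposed to compound 72 h at 37 °C, 5% CO2, final DMSO below 0.1%, DMSO control. Viability by CellTiter-Glo luminescence, duplicate.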

Experiment [3] relates to MOLT-4. In words: Cellular MOLT-4 viability assay (CellTiter-Glo, 72 hours). The following applies: Homo sapiens, MOLT4 viability assay. The experiment is classed as cell-based. The method in brief: as §1
Experiment [4] deals with T1, CDK5/p25 (Homo sapiens, UniProt Q00535).
T1 construct: purchased Invitrogen PR8543B
Description: Enzymatic assay for CDK5 (FRET based LANCE Ultra kinase assay). The following applies: read-out: CDK5 enzymatic activity (IC50 range). The experiment is classed as biochemical. The method in brief: (§2)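 LANCE Ultra TR-FRET: ULight-MBP peptide (68 nM) with ATP at Km, […], 60 min at 23° C. EDTA plus Eu-anti-phospho-MBP added, another 60 min, then 665/615 nm emission read. Compounds tested as 8-dose 4-fold DMSO dilutions.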

For experiment [5], the system named is MV4-11. In words: Cellular MV4-11 viability assay (CellTiter-Glo, 72 hours). Format: cell-based. The following applies: Homo sapiens. The method in brief: as §1
Experiment [6] has as its target T2, CDK1/Cyclin B (Homo sapiens, UniProt P06493).
T2 construct: purchased Invitrogen PR4768C
In words: Enzymatic assay for CDK1 (FRET based LANCE Ultra kinase assay). The experiment is classed as biochemical. The following applies: read-out: CDK1 enzymatic activity (IC50 range). The method in brief:
as §2

Experiment [7] has as its system RPMI-8226. Description: Cellular RPMI-8226 viability assay (CellTiter-Glo, 72 hours). Format: cell-based. The following applies: Homo sapiens. The method in brief: as §1
Experiment [8] concerns the target T3, CDK7/Cyclin H/MNAT1 (Homo sapiens, UniProt P50613).
T3 construct: purchased Invitrogen PR6749B
In words: Enzymatic assay for CDK7 (FRET based LANCE Ultra kinase assay). Format: biochemical. The following applies: for IC50: read-out: CDK7 enzymatic activity (IC50 range). The method in brief:
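LANCE Ultra TR-FRET kinase assay using a ULight-labeled peptide substrate and a Eu-labeled anti-phospho antibody, with ATP at its Km. Purified CDK/cyclin complex was added to compound after brief centrifugation.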
(In TR-FRET formats the signal depends on donor and acceptor labels being close together.)

The target of experiment [9] is T4, CDK2/Cyclin A (Homo sapiens, UniProt P24941).
T4 construct: purchased Invitrogen PV6290
In words: Enzymatic assay for CDK2 (FRET based LANCE Ultra kinase assay). The experiment is classed as biochemical. The following applies: read-out: CDK2 enzymatic activity (IC50 range). The method in brief:
as §2

Experiment [10] concerns HCT116. In words: Cellular HCT116 viability assay (CellTiter-Glo, 72 hours). The experiment is classed as cell-based. The following applies: Homo sapiens, HCT-116. The method in brief:
as §1

T1 sequence (Q00535 whole entry): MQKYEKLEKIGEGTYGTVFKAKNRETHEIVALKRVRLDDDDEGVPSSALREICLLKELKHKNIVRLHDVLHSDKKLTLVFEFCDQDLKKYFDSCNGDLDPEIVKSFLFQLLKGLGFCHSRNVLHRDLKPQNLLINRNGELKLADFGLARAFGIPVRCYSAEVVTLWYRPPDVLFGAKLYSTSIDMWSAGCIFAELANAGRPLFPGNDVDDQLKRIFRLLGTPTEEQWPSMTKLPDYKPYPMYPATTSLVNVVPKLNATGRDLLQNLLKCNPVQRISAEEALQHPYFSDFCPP
T1 sequence (Q15078 99-307 partner limits assumed): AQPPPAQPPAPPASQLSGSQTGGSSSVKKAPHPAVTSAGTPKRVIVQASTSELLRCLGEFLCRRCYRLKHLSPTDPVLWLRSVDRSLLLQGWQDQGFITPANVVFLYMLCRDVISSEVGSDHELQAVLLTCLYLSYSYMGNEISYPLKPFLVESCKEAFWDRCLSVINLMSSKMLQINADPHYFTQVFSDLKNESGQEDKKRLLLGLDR
T3 sequence (P50613 whole entry): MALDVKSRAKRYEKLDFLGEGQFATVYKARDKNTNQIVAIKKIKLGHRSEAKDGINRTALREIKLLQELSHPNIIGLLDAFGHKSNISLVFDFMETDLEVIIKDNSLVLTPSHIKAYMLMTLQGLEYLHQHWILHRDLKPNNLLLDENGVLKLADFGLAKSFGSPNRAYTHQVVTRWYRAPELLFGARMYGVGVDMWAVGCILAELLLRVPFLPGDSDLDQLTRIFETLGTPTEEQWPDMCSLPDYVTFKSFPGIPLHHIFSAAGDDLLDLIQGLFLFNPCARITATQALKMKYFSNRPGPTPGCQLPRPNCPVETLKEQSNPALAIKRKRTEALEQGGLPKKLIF
T3 sequence (P51946 whole entry partner): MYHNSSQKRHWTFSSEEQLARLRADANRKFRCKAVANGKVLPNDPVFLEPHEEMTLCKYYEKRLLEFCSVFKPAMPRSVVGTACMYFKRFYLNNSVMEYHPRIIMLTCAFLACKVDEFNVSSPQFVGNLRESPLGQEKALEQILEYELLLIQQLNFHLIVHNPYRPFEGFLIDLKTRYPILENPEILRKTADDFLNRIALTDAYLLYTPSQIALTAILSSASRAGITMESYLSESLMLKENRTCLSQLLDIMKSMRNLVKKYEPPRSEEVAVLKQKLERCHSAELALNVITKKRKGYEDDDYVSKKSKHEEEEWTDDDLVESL
T3 sequence (P51948 whole entry partner): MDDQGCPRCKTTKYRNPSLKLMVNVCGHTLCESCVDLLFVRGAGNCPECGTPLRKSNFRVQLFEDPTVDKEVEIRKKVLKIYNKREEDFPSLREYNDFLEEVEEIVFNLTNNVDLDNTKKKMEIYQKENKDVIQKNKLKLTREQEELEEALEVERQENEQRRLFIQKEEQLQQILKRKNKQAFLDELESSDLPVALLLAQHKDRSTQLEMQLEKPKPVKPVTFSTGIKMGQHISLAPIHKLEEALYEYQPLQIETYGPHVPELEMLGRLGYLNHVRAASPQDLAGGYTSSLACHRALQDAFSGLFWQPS
T2 sequence (P06493 whole entry): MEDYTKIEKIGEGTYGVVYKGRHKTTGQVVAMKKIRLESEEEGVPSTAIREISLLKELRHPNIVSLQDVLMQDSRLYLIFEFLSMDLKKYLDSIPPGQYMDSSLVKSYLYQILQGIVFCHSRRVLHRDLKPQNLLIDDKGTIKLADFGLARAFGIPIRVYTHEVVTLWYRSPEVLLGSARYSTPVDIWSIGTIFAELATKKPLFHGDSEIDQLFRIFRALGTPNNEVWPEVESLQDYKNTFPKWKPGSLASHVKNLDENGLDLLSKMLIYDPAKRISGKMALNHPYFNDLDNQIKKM
T2 sequence (P14635 whole entry partner): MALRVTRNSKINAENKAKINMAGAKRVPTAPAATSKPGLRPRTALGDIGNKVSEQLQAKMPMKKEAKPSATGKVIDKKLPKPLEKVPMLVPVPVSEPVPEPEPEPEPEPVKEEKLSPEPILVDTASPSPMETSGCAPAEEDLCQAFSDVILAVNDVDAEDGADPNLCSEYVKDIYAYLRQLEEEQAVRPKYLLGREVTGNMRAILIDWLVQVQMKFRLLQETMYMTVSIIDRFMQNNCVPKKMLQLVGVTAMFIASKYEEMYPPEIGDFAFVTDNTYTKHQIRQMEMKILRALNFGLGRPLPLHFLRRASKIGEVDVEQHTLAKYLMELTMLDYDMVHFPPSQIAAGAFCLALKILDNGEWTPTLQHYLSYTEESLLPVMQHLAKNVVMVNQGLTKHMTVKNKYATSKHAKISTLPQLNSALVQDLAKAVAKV

The term IC50 denotes the concentration that gives 50% inhibition. For `CC(C)c1cnn2c(NCc3c(-n4cccn4)cccc3C(F)(F)F)nc(N3CCC(N)CC3)nc12` [Compound 46], the IC50 in experiment [1] is 1 to 10 µM; in [2], 1 to 10 µM; in [3] it was 1 to 10 µM; in experiment [4], greater than 1 µM; in experiment [5] it was 1 to 10 µM; in experiment [6] it was greater than 1 µM. The IC50 in experiment [7] is 1 to 10 µM; in [8], less than 0.1 µM; in experiment [9], greater than 1 µM. In experiment [8], the “CDK1/CDK7: Selectivity of CDK7 inhibition over CDK1 inhibition” value is reported as “A (A=greater than 200 fold)”. The “CDK2/CDK7: Selectivity of CDK7 inhibition over CDK2 inhibition” value in experiment [8] was “A (A=greater than 200 fold)”. Moreover, in experiment [8], the “CDK5/CDK7: Selectivity of CDK7 inhibition over CDK5 inhibition” value is “A (A=greater than 200 fold)”.
Turning to `CC(C)c1cnn2c(NCc3ccccc3-n3cc4ccc(C(F)(F)F)cc4n3)nc(N3CCC(N)CC3)nc12` [Compound 104], the IC50 is no more than 1 µM in [1]; less than 1 µM in experiment [2]; 1 to 10 µM in [3]; 0.1 to 1 µM in experiment [4]; less than 1 µM in experiment [10]; less than 1 µM in experiment [5]. For the same compound, the IC50 was greater than 1 µM in [6], less than 1 µM in experiment [7], less than 0.1 µM in experiment [8] and greater than 1 µM in experiment [9]. Moreover, the “CDK1/CDK7: Selectivity of CDK7 inhibition over CDK1 inhibition” value in [8] is “A (A=greater than 200 fold)”. Moreover, in [8], the “CDK2/CDK7: Selectivity of CDK7 inhibition over CDK2 inhibition” value is “A (A=greater than 200 fold)”. Besides, the “CDK5/CDK7: Selectivity of CDK7 inhibition over CDK5 inhibition” value in experiment [8] is “B (B=less than 200 fold, but greater than 20 fold)”.
As to `CC(C)c1cnn2c(NCc3c(Cl)cccc3-n3cccn3)nc(N3CCC(N)CC3)nc12` [Compound 38], the IC50 in experiment [1] was no more than 1 µM; in [2] it was less than 1 µM; in [3] it was 1 to 10 µM; in [4], 0.1 to 1 µM; in experiment [5] it was less than 1 µM; in experiment [6], greater than 1 µM. For the same compound, the figures for the IC50 in [7], in [8] and in experiment [9] were less than 1 µM, less than 0.1 µM and greater than 1 µM, respectively. Also, the “CDK1/CDK7: Selectivity of CDK7 inhibition over CDK1 inhibition” value in [8] is recorded as “A (A=greater than 200 fold)”. Moreover, in experiment [8], the “CDK2/CDK7: Selectivity of CDK7 inhibition over CDK2 inhibition” value was “A (A=greater than 200 fold)”. Moreover, in [8], the “CDK5/CDK7: Selectivity of CDK7 inhibition over CDK5 inhibition” value is reported as “B (B=less than 200 fold, but greater than 20 fold)”.
`COc1cccc(-n2cccn2)c1CNc1nc(N2CCC(N)CC2)nc2c(C(C)C)cnn12` [Compound 39]: the IC50 in [1] was 1 to 10 µM; in experiment [2] it was 1 to 10 µM; in [3], greater than 10 µM; in experiment [4] it was greater than 1 µM; in experiment [5], 1 to 10 µM; in [6] it was greater than 1 µM. Besides, the IC50 in experiment [7] is 1 to 10 µM; in experiment [8] it was less than 0.1 µM; in experiment [9] it was greater than 1 µM. Moreover, the “CDK1/CDK7: Selectivity of CDK7 inhibition over CDK1 inhibition” value in experiment [8] was “A (A=greater than 200 fold)”. Besides, the “CDK2/CDK7: Selectivity of CDK7 inhibition over CDK2 inhibition” value in experiment [8] is reported as “A (A=greater than 200 fold)”. For the same compound, the “CDK5/CDK7: Selectivity of CDK7 inhibition over CDK5 inhibition” value in experiment [8] was “A (A=greater than 200 fold)”.
As for `CC(C)c1cnn2c(NCc3ccccc3-c3nccc4ccccc34)nc(N3CCC(N)CC3)nc12` [Compound 79], the IC50 in experiment [1] is 1 to 10 µM; in experiment [2] it was 1 to 10 µM; in experiment [3], greater than 10 µM; in [4], greater than 1 µM; in [5], 1 to 10 µM; in experiment [6], greater than 1 µM. The IC50 in experiment [7] is 1 to 10 µM; in [8], less than 0.1 µM; in [9] it was greater than 1 µM. Besides, in experiment [8], the “CDK1/CDK7: Selectivity of CDK7 inhibition over CDK1 inhibition” value is “A (A=greater than 200 fold)”. In experiment [8], the “CDK2/CDK7: Selectivity of CDK7 inhibition over CDK2 inhibition” value is “A (A=greater than 200 fold)”. For the same compound, the “CDK5/CDK7: Selectivity of CDK7 inhibition over CDK5 inhibition” value in [8] is “A (A=greater than 200 fold)”.
